Earlier results in US20170247647A1, “FLAVOR NANOEMULSIONS AND METHODS OF PREPARING THE SAME” (International Flavors & Fragrances Inc., priority 2014, published 2017).

Details: commercial surfactant
For Tween™ 20, the HLB is given as 16.7.
For Tween™ 60, the HLB is listed as 14.9.
For Tween™ 80, the HLB is listed as 15.

Details: not given
For `CSC` [dimethyl sulfide], the “Water Solubility (g/L, approx.)” value is given as “insoluble”.
In the case of `CCOC(C)=O` [ethyl acetate], the “Water Solubility (g/L, approx.)” value is given as ~90 g/L.
In the case of `CCCC(=O)OCC` [ethyl butyrate], the “Water Solubility (g/L, approx.)” value is given as ~6 g/L.
In the case of `CCOC(=O)CC` [ethyl propionate], the “Water Solubility (g/L, approx.)” value is listed as ~14 g/L.
For `CCCC(=O)OC` [methyl butyrate], the “Water Solubility (g/L, approx.)” value is given as ~15 g/L.
